In test [1] the target is T1, 2-5A-dependent ribonuclease (Homo sapiens) (UniProt Q05823).
T1 sequence (whole entry): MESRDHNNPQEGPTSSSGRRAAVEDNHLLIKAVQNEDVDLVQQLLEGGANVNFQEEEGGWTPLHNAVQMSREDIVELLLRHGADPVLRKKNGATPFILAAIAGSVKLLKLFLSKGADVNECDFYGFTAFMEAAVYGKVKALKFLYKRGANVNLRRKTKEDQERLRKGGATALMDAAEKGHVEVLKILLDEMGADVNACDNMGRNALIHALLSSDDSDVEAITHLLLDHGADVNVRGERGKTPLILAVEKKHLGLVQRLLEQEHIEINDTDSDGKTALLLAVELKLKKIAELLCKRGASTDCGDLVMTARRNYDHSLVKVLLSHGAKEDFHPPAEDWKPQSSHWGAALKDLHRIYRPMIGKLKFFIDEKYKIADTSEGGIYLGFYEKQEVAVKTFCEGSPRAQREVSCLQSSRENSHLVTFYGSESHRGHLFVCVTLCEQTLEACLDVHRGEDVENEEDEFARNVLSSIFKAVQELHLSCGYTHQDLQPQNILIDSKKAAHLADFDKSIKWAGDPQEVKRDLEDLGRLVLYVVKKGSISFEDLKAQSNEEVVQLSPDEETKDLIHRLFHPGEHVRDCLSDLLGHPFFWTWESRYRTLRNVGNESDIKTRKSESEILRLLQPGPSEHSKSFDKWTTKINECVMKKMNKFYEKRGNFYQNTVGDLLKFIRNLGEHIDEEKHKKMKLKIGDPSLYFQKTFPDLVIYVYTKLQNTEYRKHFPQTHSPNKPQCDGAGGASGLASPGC
As to the kind of experiment: Inhibition of his6-tagged full length human RNase L expressed in insect cells at 250 uM incubated for 30 min by FRET assay relative to control.

For test [2], the target named is T2, 2-5A-dependent ribonuclease (Homo sapiens, UniProt Q05823).
T2 sequence (Q05823 whole entry): T1 sequence (whole entry)
Put plainly: Inhibition of his6-tagged full length human RNase L expressed in insect cells incubated for 30 min by FRET assay.

Test [3] deals with T1, 2-5A-dependent ribonuclease (Homo sapiens). As to the kind of experiment: Inhibition of RNase L in human HeLa cells assessed as ribosomal RNA degradation at 2 uM incubated for 4 hrs by NanoDrop spectrophotometry analysis. It is filed as cell-based.
For test [4] the target is unchanged. Put plainly: Binding affinity to his6-tagged full length human RNase L expressed in insect cells by biolayer interferometry analysis.
Test [5] shares this target. Put plainly: Inhibition of his6-tagged full length human RNase L expressed in insect cells incubated for 30 mins in presence of 2-5A and ATP by gel based RNA cleavage assay. The note with it: dose 250.0 µM.
Test [6] has the same target. Put plainly: Inhibition of RNase L in human HeLa cells assessed as ribosomal RNA degradation at 10 uM incubated for 4 hrs by NanoDrop spectrophotometry analysis relative to control. It is filed as cell-based.
Test [7] has the same target. Put plainly: Inhibition of his6-tagged full length human RNase L expressed in insect cells at 250 uM incubated for 30 mins in presence of 2-5A and ATP by gel based RNA cleavage assay relative to control.
Test [8] has the same target. As to the kind of experiment: Inhibition of his6-tagged full length human RNase L expressed in insect cells at 130 uM incubated for 30 min by FRET assay relative to control.
Test [9] shares this target. As to the kind of experiment: Potency index, ratio of sunitinib IC50 to test compound IC50 for inhibition of his6-tagged full length human RNase L expressed in insect cells incubated for 30 min by FRET assay.

pIC50: −log10 of the molar value. The source made the active and inactive calls. No cut-off for these calls is given here. A value given as a limit tells only on which side of the number the result lay.

The inhibition is the change of the read-out against control, counted positive when it falls. In the case of `CCN(CC)CCNC(=O)c1c(C)[nH]c(/C=C2/SC(Nc3cccc(F)c3)=C(C(=O)NCc3ccccc3)C2=O)c1C`, the inhibition in [1] worked out at 99%.

By pIC50 is commonly meant the negative decadic logarithm of the IC50, by convention in mol/L. A high value points to a small IC50. For the molecule `CCN(CC)CCNC(=O)c1c(C)[nH]c(/C=C2/SC(Nc3cccc(F)c3)=C(C(=O)NCCN)C2=O)c1C`, the pIC50 in test [2] was 4.80. Besides, the inhibition result in [3] is “Active”. In addition, in [4], the outcome was Active. The inhibition entry is “Dose-Dependent Effect” in test [5], 100% in test [6], 100% in test [7] and 102% in test [1].

In test [2], `CCN(CC)CCNC(=O)c1c(C)[nH]c(/C=C2/SC(Nc3cccc(Cl)c3)=C(C(=O)NCCN)C2=O)c1C` had a pIC50 of 4.92. Moreover, the outcome in [4] was Active. Moreover, the values for the inhibition entry in test [5], in [7] and in test [1] were “Dose-Dependent Effect”, 100% and 101%, respectively. On to `CCOC(=O)C1=C(Nc2cccc(OC)c2)S/C(=C/c2[nH]c(C)c(C(=O)NCCN(CC)CC)c2C)C1=O`, for which, in test [1], the inhibition was 78%.

`CCOC(=O)C1=C(Nc2ccccc2Br)S/C(=C/c2[nH]c(C)c(C(=O)NCCN(CC)CC)c2C)C1=O`: the inhibition in test [1] was found to be 85%. As for `CCN(CC)CCNC(=O)c1c(C)[nH]c(/C=C2/SC(Nc3cccc(OC)c3)=C(C(=O)NC)C2=O)c1C`, the inhibition in test [1] is 99%. With `CCN(CC)CCNC(=O)c1c(C)[nH]c(/C=C2/SC(Nc3cccc(Cl)c3)=C(C(=O)NC)C2=O)c1C`, in test [8], the inhibition worked out at 88%. Take `CCOC(=O)C1=C(Nc2ccc([N+](=O)[O-])cc2)S/C(=C/c2[nH]c(C)c(C(=O)NCCN(CC)CC)c2C)C1=O`: the inhibition in test [1] was 67%. Same read-out and setting: in the case of `CCOC(=O)C1=C(Nc2cccc(F)c2)S/C(=C/c2[nH]c(C)c(C(=O)NCCN(CC)CC)c2C)C1=O` it was 76%; in that of `CCOC(=O)C1=C(Nc2ccccc2)S/C(=C/c2[nH]c(C)c(C(=O)NCCN(CC)CC)c2C)C1=O`, 78%; in that of `CCN(CC)CCNC(=O)c1c(C)[nH]c(/C=C2/SC(Nc3cccc(F)c3)=C(C(=O)NC)C2=O)c1C`, 58%. Turning to `CCOC(=O)C1=C(Nc2ccc(Br)cc2)S/C(=C/c2[nH]c(C)c(C(=O)NCCN(CC)CC)c2C)C1=O`, the inhibition in test [1] is 90%. Consider `CCN(CC)CCNC(=O)c1c(C)[nH]c(/C=C2/SC(Nc3ccc(F)cc3)=C(C(=O)NC)C2=O)c1C`, for which the inhibition in test [1] is less than 5%. As to `CCOC(=O)C1=C(Nc2ccc(OC)c(OC)c2)S/C(=C/c2[nH]c(C)c(C(=O)NCCN(CC)CC)c2C)C1=O`, the inhibition in [1] was determined as 79%. With `CCN(CC)CCNC(=O)c1c(C)[nH]c(/C=C2/SC(Nc3ccccc3)=C(C(=O)NCCNC(=O)OC(C)(C)C)C2=O)c1C`, the inhibition in test [1] turned out to be 75%. As to `CCN(CC)CCNC(=O)c1c(C)[nH]c(/C=C2/OC(Nc3ccccc3)=C(C(=O)NCCNC(=O)OC(C)(C)C)C2=O)c1C`, the inhibition in test [1] is 79%. Take `CCOC(=O)C1=C(Nc2ccc(CC)cc2)S/C(=C/c2[nH]c(C)c(C(=O)NCCN(CC)CC)c2C)C1=O`: the inhibition in test [1] was determined as 83%. Take `CCN(CC)CCNC(=O)c1c(C)[nH]c(/C=C2\C(=O)Nc3ccc(F)cc32)c1C`: the inhibition in [1] stood at 83%. As to `CCOC(=O)C1=C(Nc2ccc(C(F)(F)F)cc2)S/C(=C/c2[nH]c(C)c(C(=O)NCCN(CC)CC)c2C)C1=O`, in [1], the inhibition amounted to 90%. As to `CCN(CC)CCNC(=O)c1c(C)[nH]c(/C=C2/SC(Nc3cccc(F)c3)=C(C(=O)NCCNC(=O)OC(C)(C)C)C2=O)c1C`, the inhibition in test [1] was 100%.

As for `CCOC(=O)C1=C(Nc2cccc([N+](=O)[O-])c2)S/C(=C/c2[nH]c(C)c(C(=O)NCCN(CC)CC)c2C)C1=O`, the inhibition in test [1] came to 76%. For `CCOC(=O)C1=C(Nc2ccc(OC)cc2)S/C(=C/c2[nH]c(C)c(C(=O)NCCN(CC)CC)c2C)C1=O`, the inhibition in [1] worked out at 70%. In the case of `CCOC(=O)C1=C(Nc2ccc(C)cc2)S/C(=C/c2[nH]c(C)c(C(=O)NCCN(CC)CC)c2C)C1=O`, the inhibition in [1] amounted to 83%. Regarding `CCN(CC)CCNC(=O)c1c(C)[nH]c(/C=C2/SC(Nc3ccccc3)=C(C(=O)NC)C2=O)c1C`, the inhibition in [1] was 67%.

On to `CCOC(=O)C1=C(Nc2ccc(F)cc2)S/C(=C/c2[nH]c(C)c(C(=O)NCCN(CC)CC)c2C)C1=O`, for which the inhibition in test [1] was determined as 80%. Still for that read-out and setting: in the case of `CCN(CC)CCNC(=O)c1c(C)[nH]c(/C=C2/OC(Nc3cccc(F)c3)=C(C(=O)NCCNC(=O)OC(C)(C)C)C2=O)c1C` it was 84%; in that of `CCN(CC)CCNC(=O)c1c(C)[nH]c(/C=C2/SC(Nc3cccc(Cl)c3)=C(C(=O)NCCNC(=O)OC(C)(C)C)C2=O)c1C`, 96%. In turn, `CCN(CC)CCNC(=O)c1c(C)[nH]c(/C=C2/SC(Nc3ccccc3)=C(C(=O)NCCN)C2=O)c1C` gave a pIC50 in [2] of 4.55. In test [1], the inhibition came to 101%.

Consider `CCN(CC)CCNC(=O)c1c(C)[nH]c(/C=C2/OC(Nc3ccccc3)=C(C(=O)NC)C2=O)c1C`, for which the inhibition in test [1] came out at 74%.

On to `CCN(CC)CCNC(=O)c1c(C)[nH]c(/C=C2/OC(Nc3cccc(F)c3)=C(C(=O)NCCN)C2=O)c1C`, for which the pIC50 in test [2] is 4.38. Besides, the inhibition in test [1] came out at 97%. On to `CCN(CC)CCNC(=O)c1c(C)[nH]c(/C=C2/OC(Nc3ccccc3)=C(C(=O)NCCN)C2=O)c1C`, for which, in test [1], the inhibition came to 93%. For the molecule `CCN(CC)CCNC(=O)c1c(C)[nH]c(/C=C2/SC(Nc3cccc(OC)c3)=C(C(=O)NCCN)C2=O)c1C`, the pIC50 in [2] was 4.89. Moreover, the result in test [4] was Active. For the same molecule, the values for the inhibition entry in test [5], in test [7] and in test [1] were “Dose-Dependent Effect”, 100% and 101%, respectively. The Ratio IC50 in test [9] was 30. In the case of `CCN(CC)CCNC(=O)c1c(C)[nH]c(/C=C2/SC(Nc3cccc(OC)c3)=C(C(=O)NCCNC(=O)OC(C)(C)C)C2=O)c1C`, the inhibition in test [8] came out at 49%. For the molecule `CCN(CC)CCNC(=O)c1c(C)[nH]c(/C=C2/SC(Nc3cccc(C(F)(F)F)c3)=C(C(=O)NC)C2=O)c1C`, the inhibition in [8] came to 97%.

Regarding `CCN(CC)CCNC(=O)c1c(C)[nH]c(/C=C2/SC(Nc3cccc([N+](=O)[O-])c3)=C(C(=O)NC)C2=O)c1C`, the inhibition in test [8] is 60%.

Values taken from ChEMBL document CHEMBL5370552, “Rational design and evaluation of 2-((pyrrol-2-yl)methylene)thiophen-4-ones as RNase L inhibitors” (Eur J Med Chem, 2023).
